Measurements from patent US12365901B2, “Application of mechanical-force sensitive macrophage subset in pancreatic cancer diagnosis or prognosis evaluation” (priority 2023, dated 2025).

What was measured:
THP-1 macrophages = test: Elastic modulus of siRNA-transfected, PMA-induced THP-1 cells measured by nanoindenter; type: cell-based, human; conditions: compared with control group si-NC; PMA 50 ng/ml for 24 hours
Procedure: (§1) 1) Transfection of THP-1 cells: the cells were inoculated into a 24-well plate at a density of 2.5×10^5/ well. A transfection reagent was prepared: A: 50 μL of low serum culture medium (Opti-MEM I Reduced Serum Medium, Cat. No. 31985070, Gibco) was added with 3 μL of transfection reagent (Lipofectamine™ RNAiMAX Transfection Reagent, Cat. No. 13778075, Invitrogen). B: 50 μL of low serum culture medium (Opti-MEM I Reduced Serum Medium, Cat. No. 31985070, Gibco) was added with 1 μL of siRNA (RIBO BIO). A and B were mixed and incubated at room temperature for 5 minutes, and 50 μL of the mixture was added with the THP-1 cells to culture overnight.
(§2) 2) A cell suspension was collected and centrifuged at 1000 rpm and room temperature for 5 minutes, a supernatant was removed, and PMA (50 ng/ml, Cat. No. p1585, Sigma) was added to induce for 24 hours.
3) The cell culture medium was replaced by PBS, an instrument was calibrated by using a confocal dish, and then an elastic modulus of the cells was measured.

THP-1 cells = test: Flow cytometry of CD11b and CD68 after THP-1 cells are differentiated into macrophages; type: cell-based, human; conditions: flow cytometry after PMA-induced differentiation
Procedure: as §1, §2
4) The cells were collected, centrifuged, washed with PBS once, then added with 1 μL of Fixable Viability Stain 780 (Cat No. 565388, BD), mixed evenly, incubated on ice for 20 minutes, and washed with an FACS Buffer (2% BSA in PBS) twice. The solution was added with 2.5 μL of FC blocking antibody (Cat. No. 422302, Biolegend), blocked on ice for 20 minutes, then added with 2.5 μL of CD14-BV421 (Cat. No. 563743, BD) antibody and 1 μL of CD11b-PE (Cat. No. 101207, Biolegend) antibody, incubated on ice in the dark for 20 minutes, and then washed with an FACS Buffer twice. The solution was added with 100 μL of cell fixing solution (Cat. No. 00-8222-49, eBioscience), incubated at room temperature in the dark for 40 minutes, and then washed with a prepared membrane permeation solution (Cat. No. 00-8333-56, eBioscience) twice. The cells were resuspended to 100 μL of membrane permeation solution, added with 1.5 μL of CD68-AF647 (Cat. No. 333820, Biolegend), incubated on ice in the dark for 20 minutes, then washed with the membrane permeation solution twice, resuspended to 100 μL of FACS buffer, and detected on a computer.

| Substance | elastic modulus of the THP-1 macrophages (THP-1 macrophages) | fluorescence intensity of CD11b of the THP-1 cells (THP-1 cells) | fluorescence intensity of CD68 of the THP-1 cells (THP-1 cells) |
| --- | --- | --- | --- |
| si-Ptk2b_1: siRNA targeting human Ptk2b gene: GGATCATCATGGAATTGTA (SEQID NO. 1) (listed as DNA, chemistry not given here) | significantly reduce | significantly inhibit | significantly inhibit |
| si-Ptk2b_2: siRNA targeting human Ptk2b gene: GGACGAGGACTATTACAAA (SEQID NO. 2) (listed as DNA, chemistry not given here) | significantly reduce | significantly inhibit | significantly inhibit |
| si-Ptk2b_3: siRNA targeting human Ptk2b gene: CACATGAAGTCCGATGAGA (SEQID NO. 3) (listed as DNA, chemistry not given here) | significantly reduce | significantly inhibit | significantly inhibit |
